In patent US20030027819A1, “Beta-sheet mimetics and methods relating to the use thereof” (Molecumetics Ltd., priority 1996, published 2003):

These molecules were tested against thrombin (Bos taurus, UniProt P00735) (assay: Thrombin inhibition by solid phase compounds of Tables 11-15). Conditions: mixtures of diastereomers; read-out: Ki as thrombin inhibitors (mark at Cpd. No.).
Type: biochemical
Parameters: 100 μl of 10 μM thrombin solution
Protocol: Following extensive washing with DMF, the resin was treated with the acid fluoride of N-Fmoc-4-aminomethylbenzoic acid, or (81), or (86) and Hunigs' base in DMF until the Kaiser test was negative. Alternatively, the Fmoc-protected thiazole-(75) or imidazole-based (77) linkers were coupled to the resin using BOP, HOBt and DIEA. In some instances Fmoc-Leu or another amino acid was attached to the resin prior to the thiazole-(75) or imidazole-based (77) linkers via the same methodology. […] Following washing with DMF a dienoic acid was coupled to the resin-bound linkers using PyBOP, HOBt and Hunigs' base in DMF until the result of a Kaiser test was negative. The cycloaddition was performed by pretreatment of a solution of a pyrazolidinedione (not shown) or urazole in DMF with a solution of [bis(trifluoroacetoxy)iodo]benzene in DMF. […] The resin was then washed with DMF and CH2Cl2. Oxidation to the ketoamide was effected by treatment of the resin with a solution of Dess-Martin periodinane in DMSO for 60 min. […] The supernatant was collected and the resin was washed with additional TFA. The combined filtrates were concentrated in vacuo. The residue was precipitated with diethyl ether and the ether was decanted. The resulting solid was reconstituted in 1:1 CH3CN:H2O and lyophilized. […] The compounds were assayed for inhibition of coagulation enzymes as mixtures of diastereomers.

Ki, < 10 nM:
CCC=CCCC1C=CC(C(=O)NC(CCCCN)C(=O)C(=O)NCCc2ccc(C(N)=O)cc2)n2c(=O)n(Cc3cc(F)ccc3F)c(=O)n21 (mixture of isomers) [Structure 103]
CCC=CCCC1C=CC(C(=O)NC(CCCCN)C(=O)C(=O)NCCc2ccc(C(N)=O)cc2)n2c(=O)n(Cc3ccc(C(F)(F)F)c(F)c3)c(=O)n21 (mixture of isomers) [Structure 104]
CCC=CCCC1C=CC(C(=O)NC(CCCCN)C(=O)C(=O)NCCc2ccc(C(N)=O)cc2)n2c(=O)n(C(Cc3ccccc3)c3ccccc3)c(=O)n21 (mixture of isomers) [Structure 105]
CCC=CCCC1C=CC(C(=O)NC(CCCCN)C(=O)C(=O)NCCc2ccc(C(N)=O)cc2)n2c(=O)n(Cc3ccccc3)c(=O)n21 (mixture of isomers) [Structure 107]
CC1=CC(C(=O)NC(CCCCN)C(=O)C(=O)NCCc2ccc(C(N)=O)cc2)n2c(=O)n(Cc3cc(F)ccc3F)c(=O)n2C1 (centres unmarked) [Structure 100]
NCCCCC(NC(=O)C1C=C2CCCCC2n2c(=O)n(Cc3cc(F)ccc3F)c(=O)n21)C(=O)C(=O)NCCc1ccc(C(N)=O)cc1 (centres unmarked) [Structure 101]
CC1=CC(C(=O)NC(CCCCN)C(=O)C(=O)NCc2ccc(C(=O)NCCc3ccccc3)cc2)n2c(=O)n(Cc3cc(F)ccc3F)c(=O)n2C1 (centres unmarked) [Structure 102]
CC(C)CC1C=CC(C(=O)NC(CCCCN)C(=O)C(=O)NCc2ccc(C(N)=O)cc2)n2c(=O)n(C(c3ccccc3)c3ccccc3)c(=O)n21 (centres unmarked) [Structure 108]
CC(C)CC1C=CC(C(=O)NC(CCCCN)C(=O)C(=O)NCc2ccc(C(N)=O)cc2)n2c(=O)n(Cc3cccc4ccccc34)c(=O)n21 (centres unmarked) [Structure 109]
CC(C)CC1C=CC(C(=O)NC(CCCCN)C(=O)C(=O)NCc2ccc(C(N)=O)cc2)n2c(=O)n(Cc3cccs3)c(=O)n21 (centres unmarked) [Structure 110]
CC(C)CC1C=CC(C(=O)NC(CCCCN)C(=O)C(=O)NCCc2ccc(C(N)=O)cc2)n2c(=O)n(CC(C)c3ccccc3)c(=O)n21 (centres unmarked) [Structure 111]
CC(C)CC1C=CC(C(=O)NC(CCCCN)C(=O)C(=O)NCCc2ccc(C(N)=O)cc2)n2c(=O)n(Cc3ccccc3)c(=O)n21 (centres unmarked) [Structure 112]
CC(C)CC1C=CC(C(=O)NC(CCCCN)C(=O)C(=O)NCCc2ccc(C(N)=O)cc2)n2c(=O)n(Cc3cc(F)ccc3F)c(=O)n21 (centres unmarked) [Structure 113]
COc1ccccc1-n1c(=O)n2n(c1=O)C(C(=O)NC(CCCCN)C(=O)C(=O)NCCc1ccc(C(N)=O)cc1)C=CC2CC(C)C (centres unmarked) [Structure 114]
CC(C)CC1C=CC(C(=O)NC(CCCCN)C(=O)C(=O)NCCc2ccc(C(N)=O)cc2)n2c(=O)n(CCc3cccs3)c(=O)n21 (centres unmarked) [Structure 115]
CC(C)CC1C=CC(C(=O)NC(CCCCN)C(=O)C(=O)NCCc2ccc(C(N)=O)cc2)n2c(=O)n(Cc3cccs3)c(=O)n21 (centres unmarked) [Structure 116]
CC(C)CC1C=CC(C(=O)NC(CCCCN)C(=O)C(=O)NCCc2ccc(C(N)=O)cc2)n2c(=O)n(Cc3cccc4ccccc34)c(=O)n21 (centres unmarked) [Structure 117]
CC(C)CC1C=CC(C(=O)NC(CCCCN)C(=O)C(=O)NCCc2ccc(C(N)=O)cc2)n2c(=O)n(C(c3ccccc3)c3ccccc3)c(=O)n21 (centres unmarked) [Structure 118]
NCCCCC(NC(=O)C1C=C2CCCCC2n2c(=O)n(CCc3cccs3)c(=O)n21)C(=O)C(=O)NCCc1ccc(C(N)=O)cc1 (centres unmarked) [Structure 119]
NCCCCC(NC(=O)C1C=C2CCCCC2n2c(=O)n(Cc3cc(F)ccc3F)c(=O)n21)C(=O)C(=O)NCCc1ccc(C(N)=O)cc1 (centres unmarked) [Structure 120]
CC(Cn1c(=O)n2n(c1=O)C1CCCCC1=CC2C(=O)NC(CCCCN)C(=O)C(=O)NCCc1ccc(C(N)=O)cc1)c1ccccc1 (centres unmarked) [Structure 121]
CC1=CC(C(=O)NC(CCCCN)C(=O)C(=O)NCCc2ccc(C(N)=O)cc2)n2c(=O)n(Cc3cc(F)ccc3F)c(=O)n2C1c1ccccc1 (centres unmarked) [Structure 122]
CC1=CC(C(=O)NC(CCCCN)C(=O)C(=O)NCCc2ccc(C(N)=O)cc2)n2c(=O)n(CC(C)c3ccccc3)c(=O)n2C1c1ccccc1 (centres unmarked) [Structure 123]
CC1=CC(C(=O)NC(CCCCN)C(=O)C(=O)NCCc2ccc(C(N)=O)cc2)n2c(=O)n(Cc3cccs3)c(=O)n2C1c1ccccc1 (centres unmarked) [Structure 124]
CC1=CC(C(=O)NC(CCCCN)C(=O)C(=O)NCCc2ccc(C(N)=O)cc2)n2c(=O)n(Cc3cccc4ccccc34)c(=O)n2C1c1ccccc1 (centres unmarked) [Structure 125]
CC(C)CCn1c(=O)n2n(c1=O)C(C(=O)NC(CCCCN)C(=O)C(=O)NCCc1ccc(C(N)=O)cc1)C=CC2CC(C)CC(C)(C)C (centres unmarked) [Structure 126]
COc1ccccc1-n1c(=O)n2n(c1=O)C(C(=O)NC(CCCCN)C(=O)C(=O)NCCc1ccc(C(N)=O)cc1)C=CC2CC(C)CC(C)(C)C (centres unmarked) [Structure 127]
CC(CC1C=CC(C(=O)NC(CCCCN)C(=O)C(=O)NCCc2ccc(C(N)=O)cc2)n2c(=O)n(-c3ccc(C(C)(C)C)cc3)c(=O)n21)CC(C)(C)C (centres unmarked) [Structure 128]
CC(CC1C=CC(C(=O)NC(CCCCN)C(=O)C(=O)NCCc2ccc(C(N)=O)cc2)n2c(=O)n(C(Cc3ccccc3)c3ccccc3)c(=O)n21)CC(C)(C)C (centres unmarked) [Structure 129]
CC(CC1C=CC(C(=O)NC(CCCCN)C(=O)C(=O)NCCc2ccc(C(N)=O)cc2)n2c(=O)n(CC(c3ccccc3)c3ccccc3)c(=O)n21)CC(C)(C)C (centres unmarked) [Structure 130]
CC(CC1C=CC(C(=O)NC(CCCCN)C(=O)C(=O)NCCc2ccc(C(N)=O)cc2)n2c(=O)n(C(c3ccccc3)c3ccccc3)c(=O)n21)CC(C)(C)C (centres unmarked) [Structure 131]
CC(CC1C=CC(C(=O)NC(CCCCN)C(=O)C(=O)NCCc2ccc(C(N)=O)cc2)n2c(=O)n(Cc3ccccc3)c(=O)n21)CC(C)(C)C (centres unmarked) [Structure 132]
CC(CC1C=CC(C(=O)NC(CCCCN)C(=O)C(=O)NCCc2ccc(C(N)=O)cc2)n2c(=O)n(Cc3ccc(C(F)(F)F)cc3)c(=O)n21)CC(C)(C)C (centres unmarked) [Structure 133]
CC(CC1C=CC(C(=O)NC(CCCCN)C(=O)C(=O)NCCc2ccc(C(N)=O)cc2)n2c(=O)n(Cc3ccc(C(F)(F)F)c(F)c3)c(=O)n21)CC(C)(C)C (centres unmarked) [Structure 134]
CC(CC1C=CC(C(=O)NC(CCCCN)C(=O)C(=O)NCCc2ccc(C(N)=O)cc2)n2c(=O)n(Cc3cc(F)ccc3F)c(=O)n21)CC(C)(C)C (centres unmarked) [Structure 135]
CC1=CC(C(=O)NC(CCCCN)C(=O)C(=O)NCCc2ccc(C(N)=O)cc2)n2c(=O)n(C(Cc3ccccc3)c3ccccc3)c(=O)n2C1 (centres unmarked) [Structure 136]
CC1=CC(C(=O)NC(CCCCN)C(=O)C(=O)NCCc2ccc(C(N)=O)cc2)n2c(=O)n(Cc3ccc(C(F)(F)F)c(F)c3)c(=O)n2C1 (centres unmarked) [Structure 137]
CC1=CC(C(=O)NC(CCCCN)C(=O)C(=O)NCCc2ccc(C(N)=O)cc2)n2c(=O)n(C(c3ccccc3)c3ccccc3)c(=O)n2C1 (centres unmarked) [Structure 138]
CC(C)(C)CC1C=CC(C(=O)NC(CCCCN)C(=O)C(=O)NCCc2ccc(C(N)=O)cc2)n2c(=O)n(Cc3cc(F)ccc3F)c(=O)n21 (centres unmarked) [Structure 139]
CC(C)(C)CC1C=CC(C(=O)NC(CCCCN)C(=O)C(=O)NCCc2ccc(C(N)=O)cc2)n2c(=O)n(Cc3ccccc3)c(=O)n21 (centres unmarked) [Structure 140]
CC(C)(C)CC1C=CC(C(=O)NC(CCCCN)C(=O)C(=O)NCCc2ccc(C(N)=O)cc2)n2c(=O)n(C(c3ccccc3)c3ccccc3)c(=O)n21 (centres unmarked) [Structure 141]
CC(C)(C)CC1C=CC(C(=O)NC(CCCCN)C(=O)C(=O)NCCc2ccc(C(N)=O)cc2)n2c(=O)n(CCc3ccccc3)c(=O)n21 (centres unmarked) [Structure 142]
CC(C)(C)CC1C=CC(C(=O)NC(CCCCN)C(=O)C(=O)NCCc2ccc(C(N)=O)cc2)n2c(=O)n(CC(c3ccccc3)c3ccccc3)c(=O)n21 (centres unmarked) [Structure 143]
CC(C)(C)CC1C=CC(C(=O)NC(CCCCN)C(=O)C(=O)NCCc2ccc(C(N)=O)cc2)n2c(=O)n(C(Cc3ccccc3)c3ccccc3)c(=O)n21 (centres unmarked) [Structure 144]
CC1=CC(C(=O)NC(CCCCN)C(=O)C(=O)NCCc2ccc(C(N)=O)cc2)n2c(=O)n(CC(F)(F)F)c(=O)n2C1 (centres unmarked) [Structure 145]
CC1C=CC(C(=O)NC(CCCCN)C(=O)C(=O)NCc2ccc(C(N)=O)cc2)n2c(=O)n(CCc3cccs3)c(=O)n21 (centres unmarked) [Structure 146]
CC1=CC(C(=O)NC(CCCCN)C(=O)C(=O)NCCc2ccc(C(N)=O)cc2)N2C(=O)C(Cc3ccccc3)(Cc3ccccc3)C(=O)N2C1 (centres unmarked) [Structure 187]
CC1=CC(C(=O)NC(CCCCN)C(=O)C(=O)NCCc2ccc(C(N)=O)cc2)N2C(=O)C(CC(C)C)(CC(C)C)C(=O)N2C1 (centres unmarked) [Structure 188]
CC1=CC(C(=O)NC(CCCCN)C(=O)C(=O)NCc2ccc(C(N)=O)cc2)N2C(=O)C(N)(Cc3ccccc3)C(=O)N2C1 (centres unmarked) [Structure 189]
CC1=CC(C(=O)NC(CCCNC(=N)N)C(=O)c2nc(C(N)=O)cs2)n2c(=O)n(CC(c3ccccc3)c3ccccc3)c(=O)n2C1 (centres unmarked) [Structure 198]
